{"source": "patent US9896466B2", "about": "(Smart Brain S.R.O., priority 2013, dated 2018)", "key": {"MCF7HER2−": {"test_system": "MCF7HER2−", "settings": "FIG. 4, survival, crystal violet", "method": "MitoTAX prepared according to Example 6 was tested for its effect on breast cancer cell lines. Lines with different levels of HER2 protein expression and oestrogen receptor α. (ERα) were used. The cell line MCF7 features a relatively low expression of the HER2 protein. For the testing of killing of breast cancer cells with different HER2 protein levels by MitoTAX, we prepared HER2^− and HER^+ MCF7 cells. MCF7 cells were transfected with the vector with a ‘non-silencing’ sequence (NS), with a ‘short hairpin’ sequence attenuating the expression of HER2 (sh) and with the vector with a gene for HER2. […] In the subsequent work, the sublines NS, Sh1 26 (clone 26) and +11 (clone 11) were used.\nThe individual values were determined from the survival curves of cells at various concentrations of both substances using the crystal violet method."}, "[1]": {"test_system": "MCF7 sublines differing in HER2 levels", "experiment": "Formation of reactive oxygen species (ROS)", "type": "cell-based, human", "settings": "5 μM, 1 h exposure", "source_text": "A property typically associated a number of mitocans is their ability to increase oxidative stress (formation of reactive oxygen species, ROS), selectively in cancer cells, especially associated with their action on mitochondrial complexes participating with oxidative phosphorylation. […] We tested formation of ROS also for MitoTAX."}, "mitochondrial complex I": {"test_system": "mitochondrial complex I", "experiment": "Respiration via mitochondrial complexes I and II, Oxygraf", "type": "cell-based, human", "settings": "MCF7 cells, respiration at increasing doses", "source_text": "Respiration (oxygen consumption linked with ATP formation) is related to 10^6 cells and is shown as a relative value with the beginning level of respiration marked with the relative value of 1."}, "oestrogen receptor ERα": {"test_system": "oestrogen receptor ERα", "experiment": "ERα expression by real-time PCR", "type": "cell-based", "settings": "1 μM"}, "mitochondrial potential": {"test_system": "mitochondrial potential", "experiment": "Decrease in mitochondrial potential", "type": "cell-based", "settings": "5 μM, within 1 h"}}}
{"compound": "CC/C(=C(\\c1ccccc1)c1ccc(OCCN(C)C)cc1)c1ccccc1", "note": "[TAX, tamoxifen]", "values": [{"measurement": "response of line with reduced HER2 expression (clone 26)", "setting": "MCF7HER2−", "value": "exactly opposite"}, {"measurement": "generation of ROS", "setting": "[1]", "value": "markedly less effective"}, {"measurement": "concentration at which complex I is inhibited preferably to complex II", "setting": "mitochondrial complex I", "value": "exceeding 20 μM"}, {"measurement": "reduction of ERα expression", "setting": "oestrogen receptor ERα", "value": "ineffective"}]}
{"compound": "N#CC(C#N)=NNc1cccc(Cl)c1", "note": "[CCCP]", "values": [{"measurement": "reduction of mitochondrial potential", "setting": "mitochondrial potential", "value": "reduces the mitochondrial potential to its basal value"}]}
